Paper PMC6600388 (2019)
Like-named read-outs stand apart in the source and are kept apart here. Non-standard residues stand in square brackets, D forms with d. Residues, ends and D or L forms follow the SMILES beside them. βAla = NCCC(=O)O

Tested on: human red blood cells
Details: red cells of human

| SMILES | IC50 (pH 5.5) [µM] | IC50 (pH 7.4) [µM] |
| --- | --- | --- |
| CC[C@H](C)[C@H](NC(=O)[C@H](Cc1ccccc1)NC(=O)[C@H](CCC(=O)O)NC(=O)[C@H](CCC(=O)O)NC(=O)[C@@H](NC(=O)[C@H](Cc1ccccc1)NC(=O)[C@H](CCC(=O)O)NC(=O)[C@H](Cc1ccccc1)NC(=O)CNC(=O)CCNC(=O)[C@@H](N)CS)[C@@H](C)CC)C(=O)N[C@@H](CCC(=O)O)C(=O)N[C@@H](CC(N)=O)C(=O)NCC(=O)N[C@@H](CC(C)C)C(=O)N[C@@H](CCCCN)C(=O)N[C@@H](CC(N)=O)C(=O)N[C@@H](CC(C)C)C(=O)N[C@H](C(=O)N[C@@H](CC(=O)O)C(=O)N[C@@H](Cc1c[nH]c2ccccc12)C(=O)N[C@@H](Cc1c[nH]c2ccccc12)C(=O)N[C@@H](Cc1ccc(O)cc1)C(=O)NCC(=O)N[C@@H](Cc1ccc(O)cc1)C(=O)NCC(=O)N[C@@H](CCCNC(=N)N)C(=O)N[C@@H](CCCCN)C(=O)N[C@@H](CCCCN)C(=O)N[C@@H](CCCNC(=N)N)C(=O)N[C@@H](CCCNC(=N)N)C(=O)N[C@@H](CCC(N)=O)C(=O)N[C@@H](CCCNC(=N)N)C(=O)N[C@@H](CCCNC(=N)N)C(N)=O)[C@@H](C)CC [Peptide 60] (H-C[βAla]GFEFIEEFIENGLKNLIDWWYGYGRKKRRQRR-NH2) | 1.14 | 12.8 |
| CC[C@H](C)[C@H](NC(=O)[C@H](CCC(=O)O)NC(=O)CNC(=O)[C@H](Cc1ccccc1)NC(=O)[C@H](CC(C)C)NC(=O)CNC(=O)[C@@H](N)CS)C(=O)N[C@@H](CCC(=O)O)C(=O)N[C@@H](CCC(=O)O)C(=O)N[C@@H](CC(C)C)C(=O)N[C@H](C(=O)N[C@@H](CCC(=O)O)C(=O)N[C@@H](CCC(=O)O)C(=O)NCC(=O)N[C@@H](CC(C)C)C(=O)N[C@@H](CCCCN)C(=O)N[C@@H](CC(N)=O)C(=O)N[C@@H](CC(C)C)C(=O)N[C@H](C(=O)N[C@@H](CC(=O)O)C(=O)N[C@@H](Cc1c[nH]c2ccccc12)C(=O)N[C@@H](Cc1c[nH]c2ccccc12)C(=O)N[C@@H](Cc1ccc(O)cc1)C(=O)NCC(=O)N[C@@H](Cc1ccc(O)cc1)C(=O)NCC(=O)N[C@@H](CCCNC(=N)N)C(=O)N[C@@H](CCCCN)C(=O)N[C@@H](CCCCN)C(=O)N[C@@H](CCCNC(=N)N)C(=O)N[C@@H](CCCNC(=N)N)C(=O)N[C@@H](CCC(N)=O)C(=O)N[C@@H](CCCNC(=N)N)C(=O)N[C@@H](CCCNC(=N)N)C(N)=O)[C@@H](C)CC)[C@@H](C)CC [Peptide 61] (H-CGLFGEIEELIEEGLKNLIDWWYGYGRKKRRQRR-NH2) | 0.97 | 8.07 |
| CC[C@H](C)[C@H](NC(=O)[C@H](CCC(=O)O)NC(=O)CNC(=O)[C@H](Cc1ccccc1)NC(=O)[C@H](CC(C)C)NC(=O)CNC(=O)[C@@H](N)CS)C(=O)N[C@@H](CCC(=O)O)C(=O)N[C@@H](CCC(=O)O)C(=O)N[C@@H](CC(C)C)C(=O)N[C@H](C(=O)N[C@@H](CCC(=O)O)C(=O)N[C@@H](CCC(=O)O)C(=O)NCC(=O)N[C@@H](CC(C)C)C(=O)N[C@@H](CCCCN)C(=O)N[C@@H](CC(N)=O)C(=O)N[C@@H](CC(C)C)C(=O)N[C@H](C(=O)N[C@@H](CC(=O)O)C(=O)N[C@@H](Cc1c[nH]c2ccccc12)C(=O)N[C@@H](Cc1c[nH]c2ccccc12)C(=O)N[C@@H](Cc1ccc(O)cc1)C(=O)NCC(=O)N[C@@H](Cc1ccc(O)cc1)C(=O)NCC(=O)N[C@@H](Cc1c[nH]cn1)C(=O)N[C@@H](CCCCN)C(=O)N[C@@H](CCCCN)C(=O)N[C@@H](Cc1c[nH]cn1)C(=O)N[C@@H](Cc1c[nH]cn1)C(=O)N[C@@H](CCC(N)=O)C(=O)N[C@@H](Cc1c[nH]cn1)C(=O)N[C@@H](CCCNC(=N)N)C(N)=O)[C@@H](C)CC)[C@@H](C)CC [Peptide 62] (H-CGLFGEIEELIEEGLKNLIDWWYGYGHKKHHQHR-NH2) | 1.28 | > 20 |
| CC[C@H](C)[C@H](NC(=O)[C@H](CCC(=O)O)NC(=O)CNC(=O)[C@H](Cc1ccccc1)NC(=O)[C@H](CC(C)C)NC(=O)CNC(=O)[C@@H](N)CS)C(=O)N[C@@H](CCC(=O)O)C(=O)N[C@@H](CCC(=O)O)C(=O)N[C@@H](CC(C)C)C(=O)N[C@H](C(=O)N[C@@H](CCC(=O)O)C(=O)N[C@@H](CCC(=O)O)C(=O)NCC(=O)N[C@@H](CC(C)C)C(=O)N[C@@H](CCC(=O)O)C(=O)N[C@@H](CC(N)=O)C(=O)N[C@@H](CC(C)C)C(=O)N[C@H](C(=O)N[C@@H](CC(=O)O)C(=O)N[C@@H](Cc1c[nH]c2ccccc12)C(=O)N[C@@H](Cc1c[nH]c2ccccc12)C(=O)N[C@@H](Cc1ccc(O)cc1)C(=O)NCC(=O)N[C@@H](Cc1ccc(O)cc1)C(=O)NCC(=O)N[C@@H](CCCNC(=N)N)C(=O)N[C@@H](CCCCN)C(=O)N[C@@H](CCCCN)C(=O)N[C@@H](CCCNC(=N)N)C(=O)N[C@@H](CCCNC(=N)N)C(=O)N[C@@H](CCC(N)=O)C(=O)N[C@@H](CCCNC(=N)N)C(=O)N[C@@H](CCCNC(=N)N)C(N)=O)[C@@H](C)CC)[C@@H](C)CC [Peptide 63] (H-CGLFGEIEELIEEGLENLIDWWYGYGRKKRRQRR-NH2) | 3.6 | > 20 |
| CC[C@H](C)[C@H](NC(=O)[C@H](CCC(=O)O)NC(=O)CNC(=O)[C@H](Cc1ccccc1)NC(=O)[C@H](CC(C)C)NC(=O)CNC(=O)[C@@H](N)CS)C(=O)N[C@@H](CCC(=O)O)C(=O)N[C@@H](CCC(=O)O)C(=O)N[C@@H](CC(C)C)C(=O)N[C@H](C(=O)N[C@@H](CCC(=O)O)C(=O)N[C@@H](CCC(=O)O)C(=O)NCC(=O)N[C@@H](CC(C)C)C(=O)N[C@@H](CCC(=O)O)C(=O)N[C@@H](CC(N)=O)C(=O)N[C@@H](CC(C)C)C(=O)N[C@H](C(=O)N[C@@H](CC(=O)O)C(=O)N[C@@H](Cc1c[nH]c2ccccc12)C(=O)N[C@@H](Cc1c[nH]c2ccccc12)C(=O)N[C@@H](Cc1ccc(O)cc1)C(=O)NCC(=O)N[C@@H](Cc1ccc(O)cc1)C(=O)NCC(=O)N[C@@H](Cc1c[nH]cn1)C(=O)N[C@@H](CCCCN)C(=O)N[C@@H](CCCCN)C(=O)N[C@@H](Cc1c[nH]cn1)C(=O)N[C@@H](Cc1c[nH]cn1)C(=O)N[C@@H](CCC(N)=O)C(=O)N[C@@H](Cc1c[nH]cn1)C(=O)N[C@@H](CCCNC(=N)N)C(N)=O)[C@@H](C)CC)[C@@H](C)CC [Peptide 64] (H-CGLFGEIEELIEEGLENLIDWWYGYGHKKHHQHR-NH2) | 3.91 | > 20 |
| CC[C@H](C)[C@H](NC(=O)[C@H](CCC(=O)O)NC(=O)CNC(=O)[C@H](Cc1ccccc1)NC(=O)[C@H](CC(C)C)NC(=O)CNC(=O)[C@@H](N)CS)C(=O)N[C@@H](CCC(=O)O)C(=O)N[C@@H](CCC(=O)O)C(=O)N[C@@H](Cc1ccccc1)C(=O)N[C@H](C(=O)N[C@@H](CCC(=O)O)C(=O)N[C@@H](CCC(=O)O)C(=O)NCC(=O)N[C@@H](CC(C)C)C(=O)N[C@@H](CCC(=O)O)C(=O)N[C@@H](CC(N)=O)C(=O)N[C@@H](CC(C)C)C(=O)N[C@H](C(=O)N[C@@H](CC(=O)O)C(=O)N[C@@H](Cc1c[nH]c2ccccc12)C(=O)N[C@@H](Cc1c[nH]c2ccccc12)C(=O)N[C@@H](Cc1ccc(O)cc1)C(=O)NCC(=O)N[C@@H](Cc1ccc(O)cc1)C(=O)NCC(=O)N[C@@H](CCCNC(=N)N)C(=O)N[C@@H](CCCCN)C(=O)N[C@@H](CCCCN)C(=O)N[C@@H](CCCNC(=N)N)C(=O)N[C@@H](CCCNC(=N)N)C(=O)N[C@@H](CCC(N)=O)C(=O)N[C@@H](CCCNC(=N)N)C(=O)N[C@@H](CCCNC(=N)N)C(N)=O)[C@@H](C)CC)[C@@H](C)CC [Peptide 65] (H-CGLFGEIEEFIEEGLENLIDWWYGYGRKKRRQRR-NH2) | 3.15 | > 20 |
